# Measurements published in US10544136B2, “Modulators of sphingosine phosphate receptors” (The Scripps Research Institute, priority 2008, dated 2020).
# Biological target: S1P1 (Homo sapiens (Human), UniProt P21453)
# Assay: S1P1 agonist assay (Ec50 S1P1Ag)
# Format: cell-based
# Conditions: not given
# From the text: The exact dosage will depend upon the activity of the compound, mode of administration, on the therapy desired, form in which administered, the subject to be treated and the body weight of the subject to be treated, and the preference and experience of the physician or veterinarian in charge. S1P1 agonist bioactivity of the compounds of the invention can be determined by use of an in vitro assay system which measures the activation of S1P1, which can be expressed as EC50 values, as are well known in the art inhibitors of the invention can be determined by the method described in the Examples.
# Sequence of S1P1 (P21453 whole entry): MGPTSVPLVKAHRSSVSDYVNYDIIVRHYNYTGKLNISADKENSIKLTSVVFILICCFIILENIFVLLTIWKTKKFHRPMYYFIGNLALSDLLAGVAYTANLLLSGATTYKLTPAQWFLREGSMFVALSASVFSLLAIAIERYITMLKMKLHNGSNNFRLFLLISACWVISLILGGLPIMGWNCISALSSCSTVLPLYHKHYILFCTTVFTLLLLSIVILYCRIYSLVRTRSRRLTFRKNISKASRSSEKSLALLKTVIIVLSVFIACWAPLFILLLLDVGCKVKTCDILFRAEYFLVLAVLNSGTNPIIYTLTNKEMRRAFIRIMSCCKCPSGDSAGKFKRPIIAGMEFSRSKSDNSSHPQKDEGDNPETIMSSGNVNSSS
row,Compound,EC50
1,COc1cc(OC)c(-c2nc(-c3ccncc3)no2)cc1OC [Compound 11],6.5 µM
2,Nc1cc(-c2nc(-c3ccc(S(N)(=O)=O)cc3)no2)ccn1 [Compound 18],0.397 µM
3,NS(=O)(=O)c1ccc(-c2noc(-c3cc(Cl)nc(Cl)c3)n2)cc1 [Compound 22],1.03 µM
4,COc1cc(-c2noc(-c3cccnc3)n2)ccc1C [Compound 24],1.8 µM
5,COc1cc(-c2noc(-c3cc(C)nc(Cl)c3)n2)ccc1C [Compound 28],0.477 µM
6,COc1cc(-c2noc(-c3ccnc(Cl)c3)n2)ccc1C [Compound 29],0.576 µM
7,COc1cc(-c2noc(-c3cc(CC(C)C)no3)n2)ccc1C [Compound 30],1.39 µM
8,CCOc1cccc(-c2nc(-c3ccncc3)no2)c1 [Compound 38],0.938 µM
9,COc1cc(-c2nc(-c3ccncc3)no2)ccc1C [Compound 39],0.418 µM
10,COc1cc(-c2nc(-c3ccc(C)c(OC)c3)no2)ccn1 [Compound 40],0.621 µM
11,COc1cc(-c2noc(-c3ccnnc3)n2)ccc1C [Compound 41],7.7 µM
12,COc1cc(-c2noc(Cc3ccncc3)n2)ccc1C [Compound 42],0.909 µM
13,COc1cc(-c2noc(-c3ccncc3)n2)ccc1C [Compound 44],0.731 µM
14,COc1cc(-c2noc(-c3cc(Cl)nc(Cl)c3)n2)ccc1C [Compound 45],1.48 µM
15,COc1cc(-c2noc(-c3ccc(C#N)c(C)c3)n2)ccc1C [Compound 46],0.544 µM
16,CCn1nc(C)cc1-c1nc(-c2ccc(C)c(OC)c2)no1 [Compound 48],0.295 µM
17,Cc1ccc(-c2nc(-c3ccncc3)no2)cc1C(F)(F)F [Compound 49],0.487 µM
18,CCCCc1ccc(-c2nc(-c3ccncc3)no2)cc1 [Compound 51],0.847 µM
19,CCn1nc(C)cc1-c1nc(-c2ccncc2)no1 [Compound 57],0.29 µM
20,CCOc1cccc(-c2nc(-c3ccncc3C)no2)c1 [Compound 64],0.228 µM
21,CCOc1cccc(-c2nc(-c3ccnc(N)c3)no2)c1 [Compound 65],0.319 µM
22,CCOc1cccc(-c2nc(-c3cncc(C)c3)no2)c1 [Compound 66],1.99 µM

row,Compound,EC50
1,Cc1ccc(-c2nc(-c3ccnc(N)c3)no2)cc1C(F)(F)F [Compound 69],0.197 µM
2,COc1cc(-c2nc(-c3cncc(C)c3)no2)ccc1C [Compound 74],0.601 µM
3,COc1cc(-c2nc(-c3cccnc3)no2)ccc1C [Compound 75],0.274 µM
4,CCOc1ccc(-c2nc(-c3cccc(CN4CCCC4)c3)no2)cc1OCC [Compound 77],0.45 µM
5,CCOc1ccc(-c2nnc(-c3ccncc3)o2)cc1OCC [Compound 89],0.224 µM
6,CCOc1ccc(-c2nnc(-c3ccncc3)[nH]2)cc1OCC [Compound 93],2.8 µM
7,c1ccc(Cc2nc(-c3ccncc3)no2)cc1 [Compound 105],8.4 µM
8,CCC(c1ccccc1)c1nc(-c2ccncc2)no1 (centres unmarked) [Compound 109],1.5 µM
9,CCOc1ccc(-c2nc(-c3cccc(Br)c3C)no2)cc1OCC [Compound 121],0.639 µM
10,CCOc1ccc(-c2nc(-c3ccc(CN4CCCC4)cc3C)no2)cc1OCC [Compound 125],0.171 µM
11,CCOc1ccc(-c2nc(-c3ccc(C4=NCCN4)cc3)no2)cc1OCC [Compound 181],0.733 µM
12,CCOc1ccc(-c2nc(-c3ccc(Br)c(C)c3)no2)cc1OCC [Compound 185],0.245 µM
13,CCOc1ccc(-c2nc(-c3ccc(OC(F)(F)F)cc3)no2)cc1OCC [Compound 206],> 5 µM
14,CCOc1ccc(-c2nc(-c3ccc(CN4C[C@H](O)C[C@H]4C(=O)N(C)C)cc3C)no2)cc1OCC [Compound 210],0.164 µM
15,CCOc1ccc(-c2nc(-c3ccc4ccccc4c3)no2)cc1OCC [Compound 212],0.341 µM
16,CCOc1ccc(-c2nc(-c3cccc4[nH]cc(CNC(C)(C)CO)c34)no2)cc1OCC [Compound 213],0.636 µM
17,CCOc1ccc(-c2nc(-c3cccc4[nH]cc(CN(C)CCO)c34)no2)cc1OCC [Compound 221],1.4 µM
18,CCOc1ccc(-c2nc(-c3cccc4[nH]cc(CNCCN(C)C)c34)no2)cc1OCC [Compound 222],0.284 µM
19,CCOc1ccc(-c2nc(-c3ccc4[nH]cc(CNCCN(CC)CC)c4c3)no2)cc1OCC [Compound 224],0.485 µM
20,CCOc1ccc(-c2nc(-c3cccc4[nH]cc(CN5CC[C@H](O)C5)c34)no2)cc1OCC [Compound 230],0.3 µM
21,CCOc1ccc(-c2nc(-c3cccc4[nH]cc(CNC)c34)no2)cc1OCC [Compound 233],0.581 µM

# Continued, values first:
row,EC50,Compound
1,< 0.0005 µM,"4-(5-(4-isopropoxy-3-(trifluoromethyl)phenyl)-1,2,4-oxadiazol-3-yl)-2,3-dihydro-1H-inden-1-ol [Compound 261]"
2,0.116 µM,CCOc1ccc(-c2nc(-c3ccccn3)no2)cc1OCC [Compound 33]
3,0.0834 µM,c1cc(-c2noc(-c3ccc(C4CCCCC4)cc3)n2)ccn1 [Compound 56]
4,0.129 µM,FC(F)(F)c1cc(-c2nc(-c3cccnc3)no2)ccc1-c1ccccc1 [Compound 63]
5,0.0377 µM,Cc1cnccc1-c1noc(-c2ccc(C)c(C(F)(F)F)c2)n1 [Compound 68]
6,0.0452 µM,CCOc1ccc(-c2nc(-c3cccc(CN(C)C)c3)no2)cc1OCC [Compound 78]
7,0.0865 µM,CCOc1ccc(-c2nc(-c3ccc(CN4CCCC4)cc3)no2)cc1OCC [Compound 80]
8,0.123 µM,CCOc1ccc(-c2nc(-c3ccc(CN(C)C)cc3)no2)cc1OCC [Compound 81]
9,0.048 µM,FC(F)(F)c1cc(-c2nc(-c3ccc(CN4CCCC4)cc3)no2)ccc1-c1ccccc1 [Compound 82]
10,0.0863 µM,CCOc1ccc(-c2nc(-c3ccc(N4CCN(C)CC4)cc3C)no2)cc1OCC [Compound 100]
11,0.005 µM,CCOc1ccc(-c2nc(-c3ccc(C#N)cc3C)no2)cc1OCC [Compound 122]
12,0.003 µM,CCOc1ccc(-c2nc(-c3ccc4cc[nH]c4c3)no2)cc1OCC [Compound 124]
13,0.0191 µM,CCOc1ccc(-c2nc(-c3ccc(CN(C)C)cc3C)no2)cc1OCC [Compound 128]
14,0.0042 µM,CCOc1ccc(-c2nc(-c3ccc4c(c3)NCC4)no2)cc1OCC [Compound 150]
15,0.0017 µM,CCOc1ccc(-c2nc(-c3ccc4c(c3)NC(=O)C4)no2)cc1OCC [Compound 155]
16,0.0294 µM,CCOc1ccc(-c2nc(-c3cccc(N)c3C)no2)cc1OCC [Compound 165]

row,EC50,Compound
1,0.0125 µM,CCOc1ccc(-c2nc(-c3cccc(C)c3C)no2)cc1OCC [Compound 166]
2,0.0538 µM,CCOc1ccc(-c2nc(-c3ccc(CCN4CCCC4)cc3)no2)cc1OCC [Compound 191]
3,0.104 µM,CCOc1ccc(-c2nc(-c3ccc(CO)c(C)c3)no2)cc1OCC [Compound 200]
4,0.0358 µM,CCOc1ccc(-c2nc(-c3ccc(CN4CCCC4)c(C)c3)no2)cc1OCC [Compound 202]
5,0.0322 µM,CCOc1ccc(-c2nc(-c3cccc4[nH]cc(CNCCN(CC)CC)c34)no2)cc1OCC [Compound 204]
6,0.154 µM,CCOc1ccc(-c2nc(-c3cc4ccccc4cn3)no2)cc1OCC [Compound 208]
7,0.0001 µM,"CCOc1ccc(-c2nc(-c3cccc4c3CCC4O)no2)cc1OCC (centres unmarked) [Compound 215, 4-(5-(3,4-diethoxyphenyl)-1,2,4-oxadiazol-3-yl)-2,3-dihydro-1H-inden-1-ol]"
8,0.0915 µM,CCOc1ccc(-c2nc(-c3cccc4c3CCC4NC(C)(C)CO)no2)cc1OCC (centres unmarked) [Compound 216]
9,0.132 µM,CCOc1ccc(-c2nc(-c3ccnc(CNC(C)(C)CO)c3)no2)cc1OCC [Compound 218]
10,0.013 µM,CCOc1ccc(-c2nc(-c3nccc4ccccc34)no2)cc1OCC [Compound 219]
11,0.028 µM,CCOc1ccc(-c2nc(-c3cncc(C(=O)OC)c3)no2)cc1OCC [Compound 220]
12,0.0245 µM,CCOc1ccc(-c2nc(-c3cncc(CO)c3)no2)cc1OCC [Compound 225]
13,0.0027 µM,CCOc1ccc(-c2nc(-c3ccnc(CNCCN(CC)CC)c3)no2)cc1OCC [Compound 226]
14,0.0213 µM,CCOc1ccc(-c2nc(-c3cccc4c3CCC4=O)no2)cc1OCC [Compound 227]
15,0.12 µM,CCOc1ccc(-c2nc(-c3cccc4[nH]cc(CN5CC[C@@H](O)C5)c34)no2)cc1OCC [Compound 231]
16,0.0939 µM,CCOc1ccc(-c2nc(-c3cccc4c3CCN4CCN(CC)CC)no2)cc1OCC [Compound 232]

# Same assay, conditions: unit μM/uM
row,EC50,Compound
1,466 µM,COc1cc(-c2nc(-c3ccc(C(F)(F)F)cc3)no2)ccn1 [Compound 1]
2,6.5 µM,FC(F)(F)c1ccc(-c2noc(-c3cccnc3)n2)cc1 [Compound 2]
3,5.9 µM,[O-][n+]1ccc(-c2nc(-c3ccc(C(F)(F)F)cc3)no2)cc1 [Compound 3]
4,7.8 µM,FC(F)(F)c1ccc(-c2noc(-c3ccnnc3)n2)cc1 [Compound 4]
5,4.1 µM,Fc1cc(-c2nc(-c3ccc(C(F)(F)F)cc3)no2)ccn1 [Compound 6]
6,73 µM,COc1ccc(-c2nc(-c3ccccc3)no2)cc1 [Compound 8]
7,68.4 µM,CC(C)COc1ccc(-c2nc(-c3ccncc3)no2)cc1 [Compound 9]
8,12.3 µM,CC(C)(C)c1cc(-c2nc(-c3ccc(S(N)(=O)=O)cc3)no2)cc(C(C)(C)C)c1 [Compound 14]
9,12 µM,COc1cc(-c2nc(-c3ccc(S(N)(=O)=O)cc3)no2)ccn1 [Compound 19]
10,31.8 µM,COc1cc(-c2noc(-c3cc4ccccc4s3)n2)ccc1C [Compound 47]
11,95.5 µM,CCOc1cccc(-c2nc(-c3cccnc3)no2)c1 [Compound 67]
12,7.08 µM,Cc1cc(-c2noc(-c3ccc(C)c(C(F)(F)F)c3)n2)ccn1 [Compound 70]
13,10 µM,CCOc1ccc(-c2nc(-c3cccc(OC(F)(F)F)c3)no2)cc1OCC [Compound 205]
14,10 µM,CCOc1ccc(-c2nc(-c3ccc4[nH]cc(CN5CCCC5)c4c3)no2)cc1OCC [Compound 223]
